{"source": "patent US11571426B2", "about": "“Compositions for preventing or treating lupus” (CHONG KUN DANG PHARMACEUTICAL CORP., priority 2017, dated 2023)", "key": {"[1]": {"tested_on": "TNFα secretion in LPS-stimulated human monocyte cell lines (THP-1)", "assay": "Suppression of TNFα secretion in LPS-stimulated THP-1 (ELISA)", "type": "cell-based", "protocol": "To identify the efficacy of the inventive compounds on suppressing a TNFα secretion in immune responses, suppression of TNFα production, which was achieved by a treatment with compounds 374, 461, 500, 530 and 532 according to the present invention in LPS-stimulated human monocyte cell lines (THP-1), was quantified by means of an enzyme immuno-assay (ELISA).\nSpecifically, the THP-1 cell lines (ATCC) were cultured in an RPMI-1640 medium comprising 10% FBS. The cell lines were divided into a 24 well plate at a ratio of 1×10^5 cells per well, then treated with 100 ng/mL PMA (phorbol 12-myristate 13-acetate) for 24 hours, and then differentiated into macrophage. Then, the culture medium was replaced with a new one, then treated with a test drug for 24 hours, and then treated again with 10 ng/mL LPS (E. Coli, O55:B5) for four hours for stimulation. After that, supernatant was taken and used to measure the amount of TNFα secreted from the cells by means of a Human TNFα Instant ELISA kit (eBioscience, BMS223INST) according to a protocol provided by a manufacturer."}, "[2]": {"tested_on": "NZB/W F1 female mice", "assay": "Proteinuria and UP/C in SLE model mouse", "type": "in vivo", "conditions": "positive control 5 mg/kg/day; 42 weeks old", "protocol": "(§1) 80 NZB/W F1 female mice (four weeks old) were purchased from Jackson Laboratory and maintained in an SPF breeding room with five mice per cage. Their weight and urine protein were measured at 24 weeks after birth (right before administration), and then all the animals except those having too much urine protein were divided into groups as shown in a table 2 below such that the urine protein and weight might be evenly distributed among the groups.\n(§2) Then, the mice were administered as described in the table 2 once a day for about 19 weeks from 24 weeks after birth to 42 weeks after birth.\n(§3) The fresh urine of mice was collected before and after administration every two weeks, while blood collection was performed before and after administration every four weeks. The serum was prepared by centrifugation of the collected blood and then kept at −70° C.\nA urine creatinine concentration was obtained by diluting the urine 100-fold, then measuring the concentration thereof by means of a serum chemistry analyzer (Dri-CHEM 3000 colorimetric analyzer, Fujifilm), and then calibrating the measured value using a dilution factor."}, "[3]": {"tested_on": "NZB/W F1 female mice", "assay": "Serum cytokine level (Milliplex MAP kit) in SLE disease mouse", "type": "in vivo", "conditions": "group P, 5 mg/kg/day i.p., n = 13", "protocol": "as §1, §2, §3\nTo analyze an effect of the inventive pharmaceutical composition on a change in a serum cytokine level in the SLE disease mouse, a level of GM-CSF, IFN-γ, IL-1α, IL-1β, IL-10, IL-12(p70), IL-15, IL-17a, IL-2, IL-4, IL-6, TNF-α, […], IL-22 and IL-23 in serum was measured by means of a Mouse cytokine Milliplex MAP kit (Merck Millipore), wherein the results thereof were shown in a table 3.\nData obtained from groups were compared using a Kruskal-Wallis (†p<0.05) *p<0.05 versus C group (Mann-Whitney U-test)"}, "[4]": {"tested_on": "NZB/W F1 female mice", "assay": "T cell populations in spleen (FACS) in SLE disease mouse", "type": "in vivo", "conditions": "positive control 5 mg/kg/day; vs negative control"}, "[5]": {"tested_on": "NZB/W F1 female mice", "assay": "Serum chemistry after long-term administration", "type": "in vivo, mouse", "conditions": "group P, 5 mg/kg/day i.p.; serum at autopsy", "protocol": "as §1, §2\nData obtained from groups were compared using a Kruskal-Wallis (†p<0.05), *p<0.05 versus C group (Mann-Whitney U-test), ALT: alanine aminotransferase, AST: aspartate aminotransferase, ALP: alkaline phosphatase, TBIL: total bilirubin, TCHOL: total cholesterol, TG: triglyceride, TP: total protein, CPK: creatine phosphokinase)"}, "[6]": {"tested_on": "CTLA4 (cytotoxic T-lymphocyte-associated protein 4) in the regulatory T cells", "assay": "CTLA4 expression in regulatory T cells (flow cytometry)", "type": "cell-based, mouse", "conditions": "1000 nM", "protocol": "To identify if the compounds according to the present invention regulate a function of regulatory T cells in immune responses, compounds 255, 280, 374, 416 and 476 were treated, and then an expression level of an immune checkpoint receptor CTLA4 (cytotoxic T-lymphocyte-associated protein 4) in the regulatory T cells was measured by means of flow cytometry.\nSpecifically, a six-week old C57BL6 male mice were supplied from Central Lab Animal Inc., then acclimated for one week, and then used in an experiment. A spleen was isolated from the mouse, and then treated with collagenase D (Roche, 11088866001), such that splenocytes were isolated therefrom. CD4+CD25− T cells were isolated by means of a CD4+CD25+ regulatory T cell isolation kit (Miltenyi Biotec, 130-091-041), and then CD4+CD25− T cells (at a ratio of 5×10^5 cells/well) were treated with an anti-CD3c/anti-CD28 mAb bead (T cell activation/expansion kit, Miltenyi Biotec, 130-093627) and a mouse recombinant TGF-β2 for six days, such that they were differentiated into iTreg. A test drug was simultaneously treated for six days, during which the cells were differentiated into iTreg. After that, the cells were incubated by means of anti-CD^4/anti-CD25 mAb (eBioscience, 25-0042-82, 17-0251-82) at 4° C. for 20 minutes, and then labeling was performed. […]"}, "[7]": {"conditions": "on increasing concentration from 100 nM to 300 nM"}}, "note": "Marks after values point to notes of the source that are not given here."}
{"smiles": "O=C(NO)c1ccc(CN(C(=O)N2CCOCC2)c2cccc(F)c2)cc1", "note": "[Compound 530, N-(3-fluorophenyl)-N-(4-(hydroxycarbamoyl)benzyl)morpholine-4-carboxamide]", "values": [{"measurement": "level of TNFα secretion", "setting": "[1]; [7]", "result": "drastically decreased"}]}
{"smiles": "C[C@H]1C[C@@H]2[C@H]([C@@H](O)C[C@@]3(C)[C@H]2CC[C@]3(O)C(=O)CO)[C@@]2(C)C=CC(=O)C=C12", "note": "[Methylprednisolone, reference compound]", "values": [{"measurement": "incidence rate of severe proteinuria of 300 mg/dl or more", "setting": "[2]", "result": 20, "unit": "%"}, {"measurement": "IFN-γ in serum", "setting": "[3]", "result": "0.07 ± 0.07", "unit": "pg/mL"}, {"measurement": "IL22 in serum", "setting": "[3]", "result": "17.68 ± 4.49", "unit": "pg/mL"}, {"measurement": "IL-1α in serum", "setting": "[3]", "result": "666.21 ± 146.22", "unit": "pg/mL"}, {"measurement": "IL-1β in serum", "setting": "[3]", "result": "0.65 ± 0.65", "unit": "pg/mL"}, {"measurement": "IL-2 in serum", "setting": "[3]", "result": "0.09 ± 0.09", "unit": "pg/mL"}, {"measurement": "IL-4 in serum", "setting": "[3]", "result": "1.49 ± 0.06", "unit": "pg/mL"}, {"measurement": "IL-6 in serum", "setting": "[3]", "result": "3.36 ± 0.92", "unit": "pg/mL"}, {"measurement": "IL-23 in serum", "setting": "[3]", "result": "22.31 ± 17.13", "unit": "pg/mL"}, {"measurement": "TGF-β in serum", "setting": "[3]", "result": "66007.78 ± 5207.83", "unit": "pg/mL"}, {"measurement": "decrease of ratio of CD138+ cells", "setting": "[4]", "result": 16.3, "unit": "%"}, {"measurement": "ALP", "setting": "[5]", "result": "207.45 ± 7.21", "unit": "U/I"}, {"measurement": "ALT", "setting": "[5]", "result": "24.09 ± 2.00* U/I"}, {"measurement": "AST", "setting": "[5]", "result": "52.09 ± 4.25* U/I"}, {"measurement": "Albumin", "setting": "[5]", "result": "2.52 ± 0.07* g/dl"}, {"measurement": "Ca", "setting": "[5]", "result": "9.35 ± 0.16", "unit": "mg/dL"}, {"measurement": "Glucose", "setting": "[5]", "result": "189.27 ± 12.23", "unit": "mg/dL"}, {"measurement": "TBIL", "setting": "[5]", "result": "0.41 ± 0.09", "unit": "mg/dL"}, {"measurement": "TCHOL", "setting": "[5]", "result": "162.09 ± 8.97", "unit": "mg/dL"}, {"measurement": "TG", "setting": "[5]", "result": "251.82 ± 29.19", "unit": "mg/dL"}, {"measurement": "TP", "setting": "[5]", "result": "5.42 ± 0.11* g/dl"}]}
{"smiles": "O=C(NO)c1ccc(CN(C(=O)N2CCOCC2)c2cccc(CF)c2)cc1", "note": "[Compound 500, N-(3-(fluoromethyl)phenyl)-N-(4-(hydroxycarbamoyl)benzyl)morpholine-4-carboxamide]", "values": [{"measurement": "level of TNFα secretion", "setting": "[1]; at both 100 nM and 300 nM", "result": "remarkably decreased"}]}
{"smiles": "CCN1CCN(C(=O)N(Cc2ccc(C(=O)NO)cc2)c2cccc(C(F)(F)F)c2)CC1", "note": "[Compound 461, 4-ethyl-N-(4-(hydroxycarbamoyl)benzyl)-N-(3-(trifluoromethyl)phenyl)piperazine-1-carboxamide]", "values": [{"measurement": "level of TNFα secretion", "setting": "[1]; at both 100 nM and 300 nM", "result": "remarkably decreased"}]}
{"smiles": "O=C(NO)c1ccc(CN(C(=O)N2CCOCC2)c2cccc(C(F)(F)F)c2)c(F)c1", "note": "[Compound 532, N-(2-fluoro-4-(hydroxycarbamoyl)benzyl)-N-(3-(trifluoromethyl)phenyl)morpholine-4-carboxamide]", "values": [{"measurement": "level of TNFα secretion", "setting": "[1]; [7]", "result": "drastically decreased"}]}
{"smiles": "O=C(NO)c1ccc(CN(C(=O)N2CCOCC2)c2cccc(Br)c2)cc1", "note": "[Compound 255, N-(3-bromophenyl)-N-(4-(hydroxycarbamoyl)benzyl)morpholine-4-carboxamide]", "values": [{"measurement": "cytotoxicity", "setting": "[6]", "result": "severe cytotoxicity"}]}
